Laboratory results published in ChEMBL document CHEMBL5370554, “Discovery of a first-in-class Aurora A covalent inhibitor for the treatment of triple negative breast cancer” (Eur J Med Chem, 2023).
The source made the active and inactive calls. No cut-off for these calls is given here.

Experiments:
[1] = test system: Mus musculus; assay: In vivo inhibition of Aurora signalling pathway in human MDA-MB-231 cells xenografted in BALB/c nude mouse assessed as decrease in Aurora B phosphorylation at Thr232 residue in tumor at 15 mg/kg,ip every 2days for 20 days by Western blot analysis; format: functional, organism-based; conditions: time 20.0 day
[2] = Toxicity in BALB/c nude mouse xenografted with human MDA-MB-231 cells assessed as parenchymal injury in liver at 15 mg/kg,ip every 2days for 20 days by Hematoxylin and Eosin staining based microscopy; format: organism-based; conditions: in vivo, 480 h, time 20 day
[3] = test system: MDA-MB-231; assay: Induction of apoptosis in human MDA-MB-231 cells assessed as late apoptotic cells at 1.25 uM incubated for 24 hrs by Annexin V-FITC staining based flow cytometry (Rvb= 6.90%); format: functional
[4] = test system: A549; assay: Antiproliferative activity against human A549 cells assessed as inhibition of cell proliferation incubated for 48 hrs by CCK-8 assay; format: functional, cell-based; conditions: A549, 48 h
[5] = target: T1, Aurora kinase A (Homo sapiens, UniProt O14965); assay: Inhibition of recombinant human Aurora A (1 to 403 residues) expressed in Escherichia coli using STK-substrate 2-biotin as substrate incubated for 15 mins in presence of 7.2uM ATP by HTRF assay
T1 sequence (O14965 whole entry): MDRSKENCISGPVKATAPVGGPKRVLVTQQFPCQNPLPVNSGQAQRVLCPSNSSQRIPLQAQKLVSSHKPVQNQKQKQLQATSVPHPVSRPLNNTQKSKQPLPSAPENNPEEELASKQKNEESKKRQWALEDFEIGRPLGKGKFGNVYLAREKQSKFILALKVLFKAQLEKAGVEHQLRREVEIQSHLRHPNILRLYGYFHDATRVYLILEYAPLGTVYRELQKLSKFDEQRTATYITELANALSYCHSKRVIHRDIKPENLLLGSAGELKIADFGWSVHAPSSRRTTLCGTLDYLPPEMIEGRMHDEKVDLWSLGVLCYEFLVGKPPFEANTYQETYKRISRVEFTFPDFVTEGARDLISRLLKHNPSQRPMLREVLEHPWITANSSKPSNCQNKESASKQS

[6] = test system: MDA-MB-231; assay: Induction of apoptosis in human MDA-MB-231 cells assessed as early apoptotic cells at 5 uM incubated for 24 hrs by Annexin V-FITC staining based flow cytometry (Rvb= 3.3%); format: functional
[7] = Metabolic stability in Sprague-Dawley rat liver microsomes assessed as elimination rate constant at 1.75 uM incubated upto 60 mins in presence of NADPH by LC-MS analysis; format: ADME, Microsome
[8] = target: T2, Aurora kinase A (Homo sapiens) (UniProt O14965); assay: Irreversible inhibition of recombinant human Aurora A (1 to 403 residues) expressed in Escherichia coli assessed as ratio of Kinact/Ki using STK-substrate 2-biotin as substrate at 0.625 to 40 uM incubated upto 7000 sec in presence of ATP by HTRF assay; conditions: dose 0.625-40 µM
T2 sequence (whole entry): T1 sequence (O14965 whole entry)

[9] = test system: MDA-MB-231; assay: Inhibition of cell migration in human MDA-MB-231 cells at 1.25 uM incubated for 18 hrs by Scratch assay (Rvb= 37.2%); format: functional
[10] = test system: MDA-MB-231; assay: Induction of apoptosis in human MDA-MB-231 cells assessed as late apoptotic cells at 5 uM incubated for 24 hrs by Annexin V-FITC staining based flow cytometry (Rvb= 6.90%); format: functional
[11] = test system: MDA-MB-231; assay: Antiproliferative activity against human MDA-MB-231 cells assessed as inhibition of cell proliferation incubated for 48 hrs by CCK-8 assay; format: functional, cell-based; conditions: MDA-MB-231, 48 h
[12] = target: T2, Aurora kinase A (Homo sapiens); assay: Binding affinity to Aurora A in human MDA-MB-231 cells assessed as thermal stability at 46 to 62 degreeC at 1 uM incubated for 1 hrs by […] analysis; format: cell-based
[13] = Cytotoxicity against human L02 cells assessed as inhibition of cell proliferation incubated for 48 hrs by CCK-8 assay; format: toxicity, cell-based
[14] = Metabolic stability in Sprague-Dawley rat liver microsomes assessed as half life at 1.75 uM incubated upto 60 mins in presence of NADPH by LC-MS analysis; format: ADME, Microsome
[15] = test system: MDA-MB-231; assay: Induction of cell cycle arrest in human MDA-MB-231 cells assessed as accumulation at G2/M phase at 5 uM incubated for 24 hrs by PI staining based flow cytometry (Rvb=14.0%); format: functional
[16] = test system: MDA-MB-231; assay: Induction of apoptosis in human MDA-MB-231 cells assessed as live cells at 1.25 uM incubated for 24 hrs by Annexin V-FITC staining based flow cytometry (Rvb= 88.1%); format: functional
[17] = Toxicity in BALB/c nude mouse xenografted with human MDA-MB-231 cells assessed as inflammatory cell infiltration in kidney at 15 mg/kg,ip every 2days for 20 days by Hematoxylin and Eosin staining based microscopy; format: organism-based; conditions: in vivo, 480 h, time 20 day
[18] = target: T2, Aurora kinase A (Homo sapiens); assay: Covalent irreversible inhibition of recombinant human Aurora A (1 to 403 residues) expressed in Escherichia coli using STK-substrate 2-biotin as substrate at 0.625 to 40 uM incubated upto 120 mins in presence of ATP by HTRF assay; conditions: dose 0.625-40 µM, TDE = time-dependent effect
[19] = Toxicity in BALB/c nude mouse xenografted with human MDA-MB-231 cells assessed as inflammatory cell infiltration in lung at 15 mg/kg,ip every 2days for 20 days by Hematoxylin and Eosin staining based microscopy; format: organism-based; conditions: in vivo, 480 h, time 20 day
[20] = Metabolic stability in Sprague-Dawley rat liver microsomes assessed as intrinsic clearance at 1.75 uM incubated upto 60 mins in presence of NADPH by LC-MS analysis; format: ADME, Microsome; conditions: read-out: CLH
[21] = Toxicity in BALB/c nude mouse xenografted with human MDA-MB-231 cells assessed as parenchymal injury in heart at 15 mg/kg,ip every 2days for 20 days by Hematoxylin and Eosin staining based microscopy; format: organism-based; conditions: in vivo, 480 h, time 20 day
[22] = Toxicity in BALB/c nude mouse xenografted with human MDA-MB-231 cells assessed as body weight change at 15 mg/kg,ip every 2days for 20 days; format: organism-based; conditions: in vivo, 480 h, time 20 day
[23] = target: T1, Aurora kinase A; assay: Inhibition of recombinant human Aurora A (1 to 403 residues) expressed in Escherichia coli using STK-substrate 2-biotin as substrate incubated for 60 mins in presence of 24 uM ATP by HTRF assay
[24] = Toxicity in BALB/c nude mouse xenografted with human MDA-MB-231 cells assessed as inflammatory cell infiltration in spleen at 15 mg/kg,ip every 2days for 20 days by Hematoxylin and Eosin staining based microscopy; format: organism-based; conditions: in vivo, 480 h, time 20 day
[25] = test system: MDA-MB-231; assay: Induction of apoptosis in human MDA-MB-231 cells assessed as necrotic cells at 1.25 uM incubated for 24 hrs by Annexin V-FITC staining based flow cytometry (Rvb= 1.67%); format: functional
[26] = Toxicity in BALB/c nude mouse xenografted with human MDA-MB-231 cells assessed as inflammatory cell infiltration in heart at 15 mg/kg,ip every 2days for 20 days by Hematoxylin and Eosin staining based microscopy; format: organism-based; conditions: in vivo, 480 h, time 20 day
[27] = target: T2, Aurora kinase A (Homo sapiens); assay: Covalent binding affinity to recombinant human Aurora A (1 to 403 residues) expressed in Escherichia coli assessed as covalent adduct formation at Cys290 residue at 100 uM incubated for 4 hrs by UPLC-MS/MS analysis

C=CC(=O)Nc1ccc(-c2nc(Nc3cc(C)[nH]n3)c3ccc(N4CCN(C)CC4)cc3n2)cc1
inhibition [1]: inactive
Activity [2]: Non-Toxic
Activity [3]: 18.1%
IC50 [4]: 3.08 µM
IC50 [5]: 0.00436 µM
Activity [6]: 28.6%
k el at 1 h, 1.75 µM [7]: 0.000467 s⁻¹
Ratio [8]: 6.02 10^3/M/s
inhibition at 1.25 µM [9]: 3.6%
Activity [10]: 62.6%
IC50 [11]: 1.54 µM
Activity [12]: Active
IC50 at 48 h [13]: 23.4 µM
half-life at 1.75 µM [14]: 24.3 min
Activity [15]: 50.8%
Activity [16]: 69.5%
Activity [17]: Non-Toxic
inhibition [18]: Tde
Activity [19]: Non-Toxic
microsomal CLint at 1.75 µM [20]: 71.3 µL/min/mg
Activity [21]: Non-Toxic
Activity [22]: Non-Toxic
IC50 [23]: 0.0233 µM
Activity [24]: Non-Toxic
Activity [25]: 1.83%
Activity [26]: Non-Toxic
Activity [27]: Active
